Measurements taken from the NIST ThermoML archive (doi:10.1016/j.fluid.2013.10.038).
Numbers after ± are expanded uncertainties.

Test: excess molar enthalpy (molar enthalpy of mixing); xn = mol fraction of the nth substance listed
Details: Liquid, Flow calorimetry

CCOC(C)=O [ethyl acetate] + O=C=O
excess molar enthalpy [kJ/mol]
Details	298.15 K	303.15 K	308.15 K
5000 kPa, x2 = 0.099	-1.19 ± 0.035	-1.23 ± 0.035	-1.45 ± 0.036
5000 kPa, x2 = 0.199	-2.37 ± 0.056	-2.44 ± 0.057	-2.33 ± 0.054
5000 kPa, x2 = 0.3	-3.5 ± 0.078	-3.64 ± 0.081	-3.51 ± 0.078
5000 kPa, x2 = 0.4	-4.63 ± 0.1	-4.75 ± 0.1	-4.61 ± 0.1
5000 kPa, x2 = 0.5	-5.72 ± 0.12	–	–
6000 kPa, x2 = 0.101	-1.05 ± 0.035	-1.15 ± 0.034	-1.15 ± 0.033
6000 kPa, x2 = 0.2	-2.14 ± 0.053	-2.24 ± 0.053	-2.27 ± 0.053
6000 kPa, x2 = 0.3	-3.17 ± 0.075	-3.32 ± 0.074	-3.31 ± 0.074
6000 kPa, x2 = 0.399	-4.12 ± 0.096	-4.34 ± 0.095	-4.38 ± 0.096
6000 kPa, x2 = 0.5	-5.08 ± 0.11	-5.31 ± 0.12	–
7000 kPa, x2 = 0.1	-0.383 ± 0.017	-0.903 ± 0.03	-0.994 ± 0.029
7000 kPa, x2 = 0.2	-0.7 ± 0.034	-1.81 ± 0.044	-1.98 ± 0.047
7000 kPa, x2 = 0.299	-1 ± 0.049	-2.71 ± 0.063	-2.96 ± 0.066
7000 kPa, x2 = 0.4	-1.27 ± 0.064	-3.55 ± 0.081	-3.88 ± 0.085
7000 kPa, x2 = 0.5	–	-4.28 ± 0.094	-4.73 ± 0.1
